The record followed here is PubChem BioAssay AID296 (DTP/NCI, 2004).

The experiment deals with MX-1 breast xenograft, nude mice, tumor weight T/C. Put plainly: NCI In Vivo Anticancer Drug Screen. Data for tumor model Human Mammary Carcinoma MX-1 Xenograft (intrarenal inoculation) in NU/NU Swiss (nude) mice. Conditions: endpoint: mean tumor weight change, higher = larger tumour. The essentials: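 Activity is given as a ratio, with each measurement in the compound-treated arm divided by the matching measurement in vehicle-dosed controls. Tumour size or survival serves as the measured parameter.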

[1] abbreviates: dose: 150.0 mg/kg/injection, schedule: Q04DX003 (sc), vehicle: Klucel (hydroxypropylcellulose) (HPC).
Setting [2] is: dose: 300.0 mg/kg/injection, schedule: Q04DX003 (sc), vehicle: Klucel (hydroxypropylcellulose) (HPC).
The mark [3] stands for this setting: dose: 600.0 mg/kg/injection, schedule: Q04DX003 (sc), vehicle: Klucel (hydroxypropylcellulose) (HPC).
The mark [4] stands for this setting: dose: 300.0 mg/kg/injection, schedule: Q04DX003 (sc), vehicle: saline with Tween-80.
[5] abbreviates: dose: 800.0 mg/kg/injection, schedule: Q04DX003 (sc), vehicle: Klucel (hydroxypropylcellulose) (HPC).
[6] abbreviates: dose: 1200.0 mg/kg/injection, schedule: Q04DX003 (sc), vehicle: suspension in saline.

Records with an inconclusive call do not appear.

As for `COc1ccc(C[C@H](N)C(=O)NC2C(CO)OC(n3cnc4c(N(C)C)ncnc43)C2O)cc1` (stereo not given in full), the T/C (dose: 100.0 mg/kg/injection, schedule: Q04DX003 (sc), vehicle: saline) was 102 % of control and the T/C (dose: 200.0 mg/kg/injection, schedule: Q04DX003 (sc), vehicle: saline) is 99 % of control.

For `O=C(O)c1cc(Cc2ccc(O)c(C(=O)O)c2)ccc1O` (tested in a mixture with another compound), the T/C (dose: 75.0 mg/kg/injection, schedule: Q04DX003 (sc), vehicle: Klucel (hydroxypropylcellulose) (HPC)) was 63 % of control; the T/C under setting [1] was 55 % of control; the T/C under setting [2] is 93 % of control; the T/C under setting [3] is 76 % of control.

For `O=C([O][Bi]([c]1ccccc1)[c]1ccccc1)c1ccccc1`, the T/C is 91 % of control (dose: 25.0 mg/kg/injection, schedule: Q04DX003 (ip), vehicle: Klucel (hydroxypropylcellulose) (HPC)); 78 % of control (dose: 50.0 mg/kg/injection, schedule: Q04DX003 (ip), vehicle: Klucel (hydroxypropylcellulose) (HPC)); 64 % of control (dose: 100.0 mg/kg/injection, schedule: Q04DX003 (ip), vehicle: Klucel (hydroxypropylcellulose) (HPC)).

Turning to `CCCN1COC(OCC)C(C)(C)C1` (stereo not given), the T/C is, setting by setting: under setting [4], 98 % of control; (dose: 600.0 mg/kg/injection, schedule: Q04DX003 (sc), vehicle: saline with Tween-80) 94 % of control; (dose: 1200.0 mg/kg/injection, schedule: Q04DX003 (sc), vehicle: saline with Tween-80) 73 % of control.

In the case of `O=C(Nc1ccc(N=C=S)cc1Cl)c1cc(Cl)cc(Cl)c1O`, the T/C by setting is: (dose: 25.0 mg/kg/injection, schedule: Q04DX003 (sc), vehicle: Klucel (hydroxypropylcellulose) (HPC)) 105 % of control; (dose: 50.0 mg/kg/injection, schedule: Q04DX003 (sc), vehicle: Klucel (hydroxypropylcellulose) (HPC)) 79 % of control; (dose: 100.0 mg/kg/injection, schedule: Q04DX003 (sc), vehicle: Klucel (hydroxypropylcellulose) (HPC)) 117 % of control; (dose: 400.0 mg/kg/injection, schedule: Q04DX003 (sc), vehicle: Klucel (hydroxypropylcellulose) (HPC)) 50 % of control; under setting [5], 48 % of control.

As for `CCCCCC[C@@H](O)C/C=C\CCCCCCCC(=O)OCCO`, the T/C (dose: 300.0 mg/kg/injection, schedule: Q04DX003 (sc), vehicle: saline) is 87 % of control; the T/C (dose: 600.0 mg/kg/injection, schedule: Q04DX003 (sc), vehicle: saline) was 104 % of control; the T/C (dose: 1200.0 mg/kg/injection, schedule: Q04DX003 (sc), vehicle: saline) was 96 % of control; the T/C (dose: 2400.0 mg/kg/injection, schedule: Q04DX003 (sc), vehicle: saline) was 103 % of control.

In the case of `COc1cc2cc3cc4cc(OC)c(OC)cc4c(C)[n+]3cc2cc1OC` (tested in a mixture with another compound), the T/C reads like this: under setting [6], 61 % of control; (dose: 2400.0 mg/kg/injection, schedule: Q04DX003 (sc), vehicle: suspension in saline) 84 % of control.

Regarding `C#C[C@]1(O)CC[C@H]2[C@@H]3CCc4cc(O)ccc4[C@H]3CC[C@@]21C`, the T/C is 150 % of control under setting [1]; 94 % of control under setting [2]; 80 % of control under setting [3]; 122 % of control (dose: 1200.0 mg/kg/injection, schedule: Q04DX003 (sc), vehicle: Klucel (hydroxypropylcellulose) (HPC)).

For the molecule `Cc1cc(NCCCCCCNc2cc(C)nc3cc(N(C)C)ccc23)c2ccc(N(C)C)cc2n1`, the T/C runs as follows: (dose: 37.5 mg/kg/injection, schedule: Q04DX003 (sc), vehicle: distilled water + Tween-80 + alcohol) 34 % of control; (dose: 75.0 mg/kg/injection, schedule: Q04DX003 (sc), vehicle: distilled water + Tween-80 + alcohol) 49 % of control; (dose: 150.0 mg/kg/injection, schedule: Q04DX003 (sc), vehicle: distilled water + Tween-80 + alcohol) 49 % of control; (dose: 300.0 mg/kg/injection, schedule: Q04DX003 (sc), vehicle: distilled water + Tween-80 + alcohol) 30 % of control.

In the case of `COC(=O)C[C@](O)(CCCC(C)(C)O)C(=O)O[C@@H]1C(OC)=C[C@]23CCCN2CCc2cc4c(cc2[C@H]13)OCO4`, the T/C by setting is: (dose: 0.5 mg/kg/injection, schedule: Q01DX010 (sc), vehicle: saline) 177 % of control; (dose: 1.0 mg/kg/injection, schedule: Q01DX010 (sc), vehicle: saline) 110 % of control.

Turning to `CN(C(=S)S(=O)(=O)C12CC3CC(CC(C3)C1)C2)c1ccccc1`, the T/C under setting [5] is 204 % of control.

As to `COCC(O)Cn1ccnc1[N+](=O)[O-]` (stereo not given), the T/C runs as follows: (dose: 300.0 mg/kg/injection, schedule: Q04DX003 (sc), vehicle: suspension in saline) 202 % of control; (dose: 600.0 mg/kg/injection, schedule: Q04DX003 (sc), vehicle: suspension in saline) 95 % of control; under setting [6], 108 % of control.

`Nc1nc2ccc(NCc3ccc(C(=O)NC(CCC(=O)O)C(=O)O)cc3)cc2c(=O)[nH]1` (stereo not given): the T/C (dose: 100.0 mg/kg/injection, schedule: Q04DX003 (sc), vehicle: saline with Tween-80) was 93 % of control; the T/C (dose: 200.0 mg/kg/injection, schedule: Q04DX003 (sc), vehicle: saline with Tween-80) is 93 % of control; the T/C (dose: 400.0 mg/kg/injection, schedule: Q04DX003 (sc), vehicle: saline with Tween-80) was 90 % of control; the T/C (dose: 800.0 mg/kg/injection, schedule: Q04DX003 (sc), vehicle: saline with Tween-80) was 23 % of control.

Turning to `CS(=O)(=O)c1ncc(Br)cn1`, the T/C is, setting by setting: (dose: 25.0 mg/kg/injection, schedule: Q01DX010 (sc), vehicle: suspension in saline) 79 % of control; (dose: 75.0 mg/kg/injection, schedule: Q04DX003 (sc), vehicle: saline with Tween-80) 98 % of control; (dose: 150.0 mg/kg/injection, schedule: Q04DX003 (sc), vehicle: saline with Tween-80) 121 % of control; under setting [4], 119 % of control.

Turning to `CN1c2c(nc(N)[nH]c2=O)NCC1CCNc1ccc(C(=O)NC(CCC(=O)O)C(=O)O)cc1` (stereo not given), the T/C by setting is: (dose: 100.0 mg/kg/injection, schedule: Q01DX010 (sc), vehicle: saline) 83 % of control; (dose: 100.0 mg/kg/injection, schedule: Q01DX010 (sc), vehicle: suspension in saline) 60 % of control; (dose: 200.0 mg/kg/injection, schedule: Q01DX010 (sc), vehicle: saline) 76 % of control; (dose: 400.0 mg/kg/injection, schedule: Q01DX010 (sc), vehicle: saline) 81 % of control; (dose: 400.0 mg/kg/injection, schedule: Q01DX010 (sc), vehicle: suspension in saline) 25 % of control; (dose: 800.0 mg/kg/injection, schedule: Q01DX010 (sc), vehicle: saline) 62 % of control.

For the molecule `CO[C@H]1C[C@](C)(O)Cc2cc3c(c(O)c21)C(=O)c1c(O)cc2c(c1C3=O)O[C@@H]1O[C@@]2(C)[C@H](O)[C@@H](N(C)C)[C@@H]1O`, the T/C by setting is: (dose: 3.13 mg/kg/injection, schedule: Q01DX010 (sc), vehicle: other) 93 % of control; (dose: 6.25 mg/kg/injection, schedule: Q01DX010 (sc), vehicle: other) 82 % of control; (dose: 12.5 mg/kg/injection, schedule: Q01DX010 (sc), vehicle: other) 43 % of control.

Turning to `NC(=O)c1ncn2c(=O)n(CCCl)nnc12`, the T/C was 69 % of control (dose: 25.0 mg/kg/injection, schedule: Q04DX003 (sc), vehicle: suspension in saline) and 30 % of control (dose: 50.0 mg/kg/injection, schedule: Q04DX003 (sc), vehicle: suspension in saline).

Take `c1cn[nH]c1`: the T/C is 106 % of control (dose: 75.0 mg/kg/injection, schedule: Q04DX003 (ip), vehicle: saline); 96 % of control (dose: 150.0 mg/kg/injection, schedule: Q04DX003 (ip), vehicle: saline); 69 % of control (dose: 300.0 mg/kg/injection, schedule: Q04DX003 (ip), vehicle: saline); 71 % of control (dose: 600.0 mg/kg/injection, schedule: Q04DX003 (ip), vehicle: saline).
